{
  "source": "patent US20250345340A1",
  "about": "“METHODS FOR THE PREVENTION AND TREATEMENT OF POST-OPERATIVE ABDOMINAL ADHESIONS” (UNIVERSITY OF ROCHESTER, priority 2024, published 2025)",
  "key": {"[1]": {"system": "post-operative abdominal adhesions", "assay": "Murine abdominal adhesion surgery model (cecum and abdominal wall abrasion, silk sutures, starch)", "format": "in vivo, C57Bl/6J mice", "text": "Murine Abdominal Adhesion Surgery: Mature adult (16-20-week-old) C57Bl/6J male and female mice underwent abdominal surgery to induce adhesions consistent with those observed postoperatively in clinical settings. Briefly, following sedation, a vertical midline laparotomy incision, extending from the xyphoid process to just above the bladder (˜4 cm), is made through the abdominal skin and musculature. The cecum is identified and eviscerated, followed by gentle abrasion with sterile 100-grit sandpaper for 30-60 seconds. Hemostasis is ensured and the cecum is then returned to the abdominal cavity. The abdominal wall is then abraded with sterile 100-grit sandpaper, followed by placement of two-four 4-0 silk sutures, which are placed into the abdominal wall. The intestines are then irrigated with warmed sterile saline, and hemostasis is confirmed. A small pinch of sterile autoclaved rice starch is then sprinkled on the cecum and abdominal sidewall. The laparotomy is closed with absorbable, interrupted sutures used to reapproximate the fascia and followed by sutures to close the skin. The skin is closed with skin adhesive.\nScoring of gross adhesion formation: At time of harvest, digital photographic images will be taken of the abdominal cavity of each mouse, with images standardized to a lateral reflection of abdominal wall prior to manipulation of intra-abdominal contents. These images are then curated in a Research Electronic Data Capture (RedCap)-based survey for blinded scoring. Adhesions are scored from 0-5: with ‘0’ indicating no adhesions; 1: a single thin, filmy adhesion; 2: more than one filmy adhesion; 3: one thick adhesion with focal attachment (+thin filmy adhesions); 4: one thick adhesion with broad planar attachment (+thin filmy adhesions); and 5: >1 thick adhesion with broad planar attachment, or >1 thick vascular adhesion with planar attachment (+thin filmy adhesions). Images are scored by at least 5 surgeons trained on the scoring process, with the mean of these scores reported for each mouse.\nHistological assessment of adhesions and ileal smooth muscle hypertrophy: Following digital image capture, the area of adhesion between the abdominal wall and bowel (or other organs), including any bowel: bowel adhesions is isolated, fixed in 10% neutral buffered formalin, and processed for paraffin histology. In cases of adhesion absence, the abdominal wall and cecum are harvested and sectioned separately. Five-micron transverse sections are cut through the tissue. To ensure accurate quantification of adhesions, tissue sections are collected through multiple depths through the tissue. […] Adhesion extent (length and cross-sectional area) along both the abdominal wall/cecal surface and between organs are quantified from H&E images by ≥2 blinded observers. […]\nAt harvest, the study took pictures of the peritoneal cavity, which were scored by 4 blinded, board certified surgeons adhesion scores ranged from 0 (none) to 5 (dense, vascular, adhesions).\nThe study chose the area of highest visible fibrosis and adhesion density. […] Adhesions were then measured in micrometers. Length of adhesions between the bowel to abdominal wall and bowel to bowel were measured. The total adhesion density (excluding abdominal wall fibrosis) was then measured by cross section. […]"}, "lung fibroblasts": {"system": "lung fibroblasts", "details": "cited from earlier work"}},
  "note": "Entries after “also recorded” stand apart in the source; their conditions may differ.",
  "data": [
    {"smiles": "Nc1nc(NCc2ccccc2)nc(-c2ccccc2CO)n1", "note": "[ogerin]", "values": [
      {"measurement": "length of adhesions between the bowel and abdominal wall and bowel to bowel", "setting": "[1]; histology, POD10, vs control", "value": "reduction in length of adhesions"},
      {"measurement": "overall adhesion cross section (total adhesion burden by area)", "setting": "[1]; histology, POD10, vs control", "value": "significantly lower; also recorded: reduces total adhesion burden"},
      {"measurement": "clinical adhesion score (0-5, blinded surgeons)", "setting": "[1]; ogerin injected POD 0-5, harvest POD10, vs vehicle", "value": "reduces clinical adhesion score; also recorded: significantly lower"},
      {"measurement": "adhesion formation (gross)", "setting": "[1]; ogerin injected POD 0-5, harvest POD10, vs vehicle DMSO:Saline 60:40", "value": "blunts adhesion formation; also recorded: substantial decrease in adhesion formation"},
      {"measurement": "mice demonstrating a complete lack of adhesion formation", "setting": "[1]; ogerin injected POD 0-5, harvest POD10, all vehicle mice formed robust adhesions", "value": "3 out of 4"},
      {"measurement": "TGF-b-induced myofibroblast differentiation", "setting": "lung fibroblasts", "value": "blunts"},
      {"measurement": "reversion to a basal fibroblast phenotype following TGF-β-induced myofibroblast differentiation", "setting": "lung fibroblasts", "value": "can promote reversion"}
    ]}
  ]
}
